Source: patent publication US9029337B2, “Modulation of factor 7 expression” (Isis Pharmaceuticals, Inc., priority 2007, dated 2015)
Strand notation (5' to 3'): a small letter for the sugar, then the base; units joined by * are phosphorothioate-linked, units joined directly phosphodiester-linked; [ ] holds rarer units or linkages, { } end groups; capitals alone tell only the bases. e = 2'-O-(2-methoxyethyl) (MOE); [5mC] = 5-methylcytosine; d = 2'-deoxy (DNA)

Assays:
human Factor 7 mRNA = assay: Antisense inhibition of human Factor 7 with short (14-mer) oligonucleotides in HepB3 cells, electroporation 1,000 nM; assay type: cell-based; conditions: electroporation, 1,000 nM antisense oligonucleotide, approximately 24 hours, Factor 7 mRNA relative to untreated control cells
In short: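 14-mer 2-10-2 MOE gapmers (full phosphorothioate, 5-methyl-C) electroporated at 1,000 nM into HepB3 cells at 20,000 cells/well. After ~24 h, Factor 7 mRNA by real-time RT-PCR, normalized to RiboGreen total RNA. Reported as % inhibition relative to untreated cells.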

platelet factor-4 (PF-4) [1] = assay: Thrombus formation by real-time RT-PCR quantification of PF-4 in the FeCl3 induced venous thrombosis model; assay type: in vivo, mouse; conditions: Example 16, BALB/c mice, vena cava
platelet factor-4 (PF-4) [2] = assay: as above; assay type: in vivo, mouse; conditions: for PF-4 (percentage of PF-4 as compared to the PBS-treated control groups): BALB/c mice, vena cava, FeCl3
Protocol: Three groups of BALB/c mice were injected with 25 mg/kg, 37.5 mg/kg, or 50 mg/kg of ISIS 403102, administered subcutaneously twice a week for 3 weeks. Two control groups of BALB/c mice were treated with PBS, administered subcutaneously twice a week for 3 weeks. Thrombus formation was induced with FeCl3 in half of the mice while the rest of the mice were assayed for tail bleeding. Two days after receiving the last dose of ISIS 403102 or PBS, mice were anesthetized with 150 mg/kg ketamine mixed with 10 mg/kg xylazine administered by intraperitoneal injection. Thrombus formation was induced with FeCl3 in all groups of the VT mice except the first control group.
In mice undergoing FeCl3 treatment, thrombus formation was induced by applying a piece of filter paper (2×4 mm) pre-saturated with 10% FeCl3 solution directly on the vena cava. After 3 minutes of exposure, the filter paper was removed. Thirty minutes after the filter paper application, a fixed length of the vein containing the thrombus was dissected out for platelet analysis. Liver was collected for RNA analysis.
(§1) Real-time RT-PCR quantification of platelet factor-4 (PF-4) was used to quantify platelets in the vena cava as a measure of thrombus formation. Results are presented as a percentage of PF-4 in ISIS 403102, as compared to the two PBS-treated control groups. […] Therefore, antisense oligonucleotides are useful for inhibiting thrombus and clot formation.
ISIS 403102 and warfarin (Coumadin®) were evaluated in BALB/c mice. Four groups of BALB/c mice were treated with 5 mg/kg, 10 mg/kg, 20 mg/kg, or 40 mg/kg of ISIS 403102, administered subcutaneously twice a week for 3 weeks. Two days after receiving the last dose of ISIS 403102, mice were anesthetized with 150 mg/kg ketamine mixed with 10 mg/kg xylazine administered by intraperitoneal injection. Six additional groups of BALB/c mice was treated with 0.5 mg/kg, 1 mg/kg, 2 mg·kg, 3 mg/kg, 4 mg/kg, or 5 mg/kg of warfarin, administered intraperioneally daily for 6 days. Four hours after the last dose of warfarin, mice were sacrificed. A control group of BALB/c mice were treated with PBS, administered subcutaneously twice a week for 3 weeks. Two days after the last dose of PBS, mice were anesthetized with 150 mg/kg ketamine mixed with 10 mg/kg xylazine administered by intraperitoneal injection. Thrombus formation was induced with FeCl3 in groups of mice except the first control group.
as §1, with “403102 or warfarin treated mice,” for “403102,”, “Therefore, ISIS” for “Therefore,”

Substance	% Inhibition (human Factor 7 mRNA) [%]	PF-4 (percentage of PF-4 as compared to the PBS-treated control groups) (platelet factor-4 (PF-4) [1]; 1 mg/kg s.c. twice a week for 3 weeks) [%]	PF-4 (percentage of PF-4 as compared to the PBS-treated control groups) (platelet factor-4 (PF-4) [1]; 3 mg/kg s.c. twice a week for 3 weeks) [%]	PF-4 in comparison to the PBS control (platelet factor-4 (PF-4) [2]; Example 14, 25, 37.5, 50 mg/kg twice a week for 3 weeks)	PF-4 (percentage of PF-4 as compared to the PBS-treated control groups) (platelet factor-4 (PF-4) [2]; Example 14, 25 mg/kg s.c. twice a week for 3 weeks) [%]	PF-4 (percentage of PF-4 as compared to the PBS-treated control groups) (platelet factor-4 (PF-4) [2]; Example 14, 37.5 mg/kg s.c. twice a week for 3 weeks) [%]	PF-4 (percentage of PF-4 as compared to the PBS-treated control groups) (platelet factor-4 (PF-4) [2]; Example 14, 50 mg/kg s.c. twice a week for 3 weeks) [%]	PF-4 (percentage of PF-4 as compared to the PBS-treated control groups) (platelet factor-4 (PF-4) [2]; Example 16, 5 mg/kg s.c. twice a week for 3 weeks) [%]	PF-4 (percentage of PF-4 as compared to the PBS-treated control groups) (platelet factor-4 (PF-4) [2]; Example 16, 10 mg/kg s.c. twice a week for 3 weeks) [%]	PF-4 (percentage of PF-4 as compared to the PBS-treated control groups) (platelet factor-4 (PF-4) [2]; Example 16, 20 mg/kg s.c. twice a week for 3 weeks) [%]	PF-4 (percentage of PF-4 as compared to the PBS-treated control groups) (platelet factor-4 (PF-4) [2]; Example 16, 40 mg/kg s.c. twice a week for 3 weeks) [%]	PF-4 in comparison to the PBS control (platelet factor-4 (PF-4) [2]; Example 16, dosages of 5 mg/kg and higher, twice a week for 3 weeks)
407939 (antisense eT*eG*e[5mC]*eA*eG*d[5mC]*d[5mC]*d[5mC]*dG*dG*d[5mC]*dA*d[5mC]*d[5mC]*d[5mC]*eA*eG*e[5mC]*eG*eA) [compound 407939]	81											
CCATAGAACAGCTTCACAGG (sugars from the 5' end e5 d10 e5, backbone and methylation of C not given here) [ISIS 403102]		120	112	reduction of PF-4	34	24	24	69	22	41	38	dose-dependent reduction of PF-4
